# Experimental data published in the kinase profiling compilation of Christmann-Franck et al. (2016).
# Legend:
# Assay in all cases: Caliper, Mobility shift assay off-chip
# PIM3 (human) = PIM3 (human) (UniProt Q86V86)
# MAPKAPK2 (human) = MAPKAPK2 (human) (UniProt P49137)
# GSK3A (human) = GSK3A (human) (UniProt P49840)
# ALK (human) = ALK (human) (UniProt Q9UM73)
# MAPK12 (human) = MAPK12 (human) (UniProt P53778)
# PRKAA1 (human) = PRKAA1 (human) (UniProt Q13131); conditions: compound 0.2 µM
# PTK2 (human) = PTK2 (human) (UniProt Q05397)
# CHEK2 (human) = CHEK2 (human) (UniProt O96017)
# MST1R (human) = MST1R (human) (UniProt Q04912)
# SGK3 (human) = SGK3 (human) (UniProt Q96BR1)
# AKT3 (human) = AKT3 (human) (UniProt Q9Y243)
# CSF1R (human) = CSF1R (human) (UniProt P07333)
# IKBKE (human) = IKBKE (human) (UniProt Q14164)
# Sequence of IKBKE (human) (Q14164 whole entry, looked up): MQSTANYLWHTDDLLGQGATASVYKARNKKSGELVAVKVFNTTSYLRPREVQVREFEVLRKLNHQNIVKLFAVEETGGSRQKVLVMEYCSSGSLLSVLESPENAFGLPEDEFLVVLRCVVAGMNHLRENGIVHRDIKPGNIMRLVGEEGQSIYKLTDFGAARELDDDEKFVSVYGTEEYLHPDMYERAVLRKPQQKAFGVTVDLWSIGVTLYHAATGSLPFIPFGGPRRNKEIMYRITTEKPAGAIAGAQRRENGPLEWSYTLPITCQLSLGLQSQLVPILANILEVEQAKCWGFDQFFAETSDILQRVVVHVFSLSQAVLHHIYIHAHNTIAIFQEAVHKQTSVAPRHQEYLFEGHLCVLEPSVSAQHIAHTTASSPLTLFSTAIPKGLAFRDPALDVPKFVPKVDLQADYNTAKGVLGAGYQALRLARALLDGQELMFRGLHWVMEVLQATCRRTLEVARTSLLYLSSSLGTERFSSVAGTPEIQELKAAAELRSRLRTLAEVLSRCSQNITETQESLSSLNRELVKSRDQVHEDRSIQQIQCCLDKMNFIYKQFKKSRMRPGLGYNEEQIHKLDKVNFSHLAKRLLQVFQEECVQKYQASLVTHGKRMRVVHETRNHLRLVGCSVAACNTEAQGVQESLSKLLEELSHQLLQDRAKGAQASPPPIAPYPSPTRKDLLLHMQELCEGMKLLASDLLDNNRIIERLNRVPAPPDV
# AKT1 (human) = AKT1 (human) (UniProt P31749)
# Sequence of AKT1 (human) (P31749 whole entry, looked up): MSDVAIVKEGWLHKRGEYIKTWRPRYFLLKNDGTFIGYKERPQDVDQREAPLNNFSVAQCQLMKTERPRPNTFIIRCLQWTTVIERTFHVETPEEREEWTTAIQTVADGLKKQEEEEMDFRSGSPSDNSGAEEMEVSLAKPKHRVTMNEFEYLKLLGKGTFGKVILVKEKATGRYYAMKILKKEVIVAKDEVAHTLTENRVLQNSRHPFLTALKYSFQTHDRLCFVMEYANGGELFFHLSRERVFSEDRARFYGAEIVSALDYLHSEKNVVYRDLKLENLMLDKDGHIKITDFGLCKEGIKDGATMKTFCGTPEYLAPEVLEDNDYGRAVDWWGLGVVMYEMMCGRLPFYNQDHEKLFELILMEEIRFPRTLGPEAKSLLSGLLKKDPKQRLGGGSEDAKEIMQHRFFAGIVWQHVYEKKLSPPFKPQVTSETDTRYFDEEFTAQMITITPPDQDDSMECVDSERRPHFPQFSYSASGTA
# STK3 (human) = STK3 (human) (UniProt Q13188)
# PAK7 (human) = PAK7 (human) (UniProt Q9P286)
# MERTK (human) = MERTK (human) (UniProt Q12866)
# PTK6 (human) = PTK6 (human) (UniProt Q13882)
# Sequence of PTK6 (human) (Q13882 whole entry, looked up): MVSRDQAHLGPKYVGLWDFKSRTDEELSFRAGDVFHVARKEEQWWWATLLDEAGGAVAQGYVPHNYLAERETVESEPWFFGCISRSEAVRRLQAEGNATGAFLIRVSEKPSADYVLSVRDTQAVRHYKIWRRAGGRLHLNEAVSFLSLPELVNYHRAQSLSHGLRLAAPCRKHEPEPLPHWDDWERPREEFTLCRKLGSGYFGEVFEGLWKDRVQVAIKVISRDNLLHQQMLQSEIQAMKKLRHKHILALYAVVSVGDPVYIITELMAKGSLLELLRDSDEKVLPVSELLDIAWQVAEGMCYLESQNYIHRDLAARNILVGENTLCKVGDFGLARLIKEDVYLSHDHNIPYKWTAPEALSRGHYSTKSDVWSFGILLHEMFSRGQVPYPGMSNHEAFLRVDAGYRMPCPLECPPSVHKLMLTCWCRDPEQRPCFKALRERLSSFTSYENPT
# PAK1 (human) = PAK1 (human) (UniProt Q13153)
# CIT (human) = CIT (human) (UniProt O14578)
# RPS6KA6 KD1 KD2 (human) = RPS6KA6 KD1 KD2 (human) (UniProt Q9UK32)
# Sequence of RPS6KA6 KD1 KD2 (human) (Q9UK32 whole entry, looked up): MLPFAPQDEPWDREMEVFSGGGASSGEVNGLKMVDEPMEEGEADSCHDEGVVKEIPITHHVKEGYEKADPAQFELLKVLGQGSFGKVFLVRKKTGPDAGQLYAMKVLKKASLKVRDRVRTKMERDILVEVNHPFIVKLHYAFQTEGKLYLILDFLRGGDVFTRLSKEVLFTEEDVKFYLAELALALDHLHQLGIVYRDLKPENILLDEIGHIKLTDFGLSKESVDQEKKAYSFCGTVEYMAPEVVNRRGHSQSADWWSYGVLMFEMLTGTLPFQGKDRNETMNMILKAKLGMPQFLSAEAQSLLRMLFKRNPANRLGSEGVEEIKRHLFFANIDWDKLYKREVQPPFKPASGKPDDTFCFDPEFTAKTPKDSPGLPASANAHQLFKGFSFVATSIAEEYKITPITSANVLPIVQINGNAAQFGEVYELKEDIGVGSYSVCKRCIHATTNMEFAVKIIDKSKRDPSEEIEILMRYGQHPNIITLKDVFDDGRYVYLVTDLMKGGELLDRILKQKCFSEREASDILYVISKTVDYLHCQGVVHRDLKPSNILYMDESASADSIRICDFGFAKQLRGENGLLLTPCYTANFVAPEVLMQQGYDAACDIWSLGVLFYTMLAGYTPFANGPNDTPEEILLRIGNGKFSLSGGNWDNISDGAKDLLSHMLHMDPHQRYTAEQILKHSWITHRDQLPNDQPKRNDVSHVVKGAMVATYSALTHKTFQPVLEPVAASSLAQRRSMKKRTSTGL
# SRMS (human) = SRMS (human) (UniProt Q9H3Y6)
# TAB1 (human) = TAB1 (human) (UniProt Q15750)
# EPHB1 (human) = EPHB1 (human) (UniProt P54762)
# HCK (human) = HCK (human) (UniProt P08631)
# Sequence of HCK (human) (P08631 whole entry, looked up): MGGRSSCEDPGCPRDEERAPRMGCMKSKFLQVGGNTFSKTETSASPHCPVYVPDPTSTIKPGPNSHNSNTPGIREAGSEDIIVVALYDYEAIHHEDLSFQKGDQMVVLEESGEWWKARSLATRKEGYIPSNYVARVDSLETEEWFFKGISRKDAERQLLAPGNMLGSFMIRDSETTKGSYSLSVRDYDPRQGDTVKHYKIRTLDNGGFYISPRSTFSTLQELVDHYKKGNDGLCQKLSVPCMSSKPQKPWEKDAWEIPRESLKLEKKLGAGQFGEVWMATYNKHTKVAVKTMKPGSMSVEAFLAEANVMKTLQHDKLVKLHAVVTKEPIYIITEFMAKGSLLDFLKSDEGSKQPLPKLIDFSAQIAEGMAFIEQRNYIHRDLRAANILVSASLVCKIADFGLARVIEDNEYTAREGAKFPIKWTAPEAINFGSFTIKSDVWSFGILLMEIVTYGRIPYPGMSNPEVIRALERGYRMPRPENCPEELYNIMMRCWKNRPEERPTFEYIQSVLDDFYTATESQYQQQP
# PRKCE (human) = PRKCE (human) (UniProt Q02156)
# MAPK7 (human) = MAPK7 (human) (UniProt Q13164)
# Sequence of MAPK7 (human) (Q13164 whole entry, looked up): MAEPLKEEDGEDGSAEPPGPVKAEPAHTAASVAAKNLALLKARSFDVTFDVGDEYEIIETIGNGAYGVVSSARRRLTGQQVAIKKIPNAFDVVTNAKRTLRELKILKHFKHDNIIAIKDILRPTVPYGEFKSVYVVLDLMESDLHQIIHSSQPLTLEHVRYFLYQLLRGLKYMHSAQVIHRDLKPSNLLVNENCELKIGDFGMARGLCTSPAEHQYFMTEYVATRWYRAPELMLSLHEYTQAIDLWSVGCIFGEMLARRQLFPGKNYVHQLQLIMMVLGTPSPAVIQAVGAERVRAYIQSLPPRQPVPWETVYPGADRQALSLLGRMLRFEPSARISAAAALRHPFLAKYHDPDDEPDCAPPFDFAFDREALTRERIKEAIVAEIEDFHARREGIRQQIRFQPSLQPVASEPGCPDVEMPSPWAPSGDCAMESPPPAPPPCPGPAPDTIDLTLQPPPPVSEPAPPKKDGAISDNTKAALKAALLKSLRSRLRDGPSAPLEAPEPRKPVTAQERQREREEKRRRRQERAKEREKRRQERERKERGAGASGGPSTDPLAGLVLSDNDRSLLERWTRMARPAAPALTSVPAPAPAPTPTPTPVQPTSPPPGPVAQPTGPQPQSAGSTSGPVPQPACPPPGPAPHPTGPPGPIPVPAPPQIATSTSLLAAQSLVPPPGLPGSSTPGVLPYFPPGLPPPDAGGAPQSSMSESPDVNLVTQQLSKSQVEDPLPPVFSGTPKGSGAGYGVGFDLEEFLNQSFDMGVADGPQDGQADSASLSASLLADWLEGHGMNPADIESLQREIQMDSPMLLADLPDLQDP
# PRKD1 (human) = PRKD1 (human) (UniProt Q15139)
# MAPKAPK5 (human) = MAPKAPK5 (human) (UniProt Q8IW41)
# PRKACG (human) = PRKACG (human) (UniProt P22612)
# Sequence of PRKACG (human) (P22612 whole entry, looked up): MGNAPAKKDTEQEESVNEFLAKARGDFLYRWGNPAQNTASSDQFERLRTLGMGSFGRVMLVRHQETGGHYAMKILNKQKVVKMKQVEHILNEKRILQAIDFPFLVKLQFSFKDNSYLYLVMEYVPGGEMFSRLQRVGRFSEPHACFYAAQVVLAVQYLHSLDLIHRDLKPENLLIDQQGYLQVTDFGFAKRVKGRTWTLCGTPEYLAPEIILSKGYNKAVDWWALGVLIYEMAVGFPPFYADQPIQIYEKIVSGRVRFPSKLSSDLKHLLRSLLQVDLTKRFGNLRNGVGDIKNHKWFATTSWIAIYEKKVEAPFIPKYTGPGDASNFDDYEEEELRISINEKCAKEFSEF
# RET (human) = RET (human) (UniProt P07949)
# EPHA8 (human) = EPHA8 (human) (UniProt P29322)
# PRKCA (human) = PRKCA (human) (UniProt P17252)
# MARK1 (human) = MARK1 (human) (UniProt Q9P0L2)
# Sequence of MAPKAPK2 (human) (P49137 whole entry, looked up): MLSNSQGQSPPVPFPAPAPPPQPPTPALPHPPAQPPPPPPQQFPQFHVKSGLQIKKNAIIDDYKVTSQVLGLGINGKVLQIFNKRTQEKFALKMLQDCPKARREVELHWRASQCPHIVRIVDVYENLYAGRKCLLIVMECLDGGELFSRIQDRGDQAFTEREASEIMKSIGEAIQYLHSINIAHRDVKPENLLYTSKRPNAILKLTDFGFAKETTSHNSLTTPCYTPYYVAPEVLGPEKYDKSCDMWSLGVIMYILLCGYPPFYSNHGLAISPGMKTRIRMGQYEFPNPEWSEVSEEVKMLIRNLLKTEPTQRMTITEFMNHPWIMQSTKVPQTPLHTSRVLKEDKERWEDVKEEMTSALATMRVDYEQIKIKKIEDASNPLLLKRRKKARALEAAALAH
smiles,measurement,setting,value
COc1cc2c(Oc3ccc4[nH]c(C)cc4c3F)ncnc2cc1OCCCN1CCCC1,inhibition,PIM3 (human); compound 0.02 µM,-1.8%
same,inhibition,PIM3 (human); compound 0.2 µM,-6.2%
same,inhibition,MAPKAPK2 (human); compound 0.02 µM,6.1%
same,inhibition,MAPKAPK2 (human); compound 0.2 µM,-1.5%
same,inhibition,GSK3A (human); compound 0.02 µM,3.5%
same,inhibition,GSK3A (human); compound 0.2 µM,2.1%
same,inhibition,ALK (human); compound 0.02 µM,5.8%
same,inhibition,ALK (human); compound 0.2 µM,10.6%
same,inhibition,MAPK12 (human); compound 0.02 µM,-4.8%
same,inhibition,MAPK12 (human); compound 0.2 µM,-0.1%
same,inhibition,PRKAA1 (human),7.1%
same,inhibition,PTK2 (human); compound 0.02 µM,-5.3%
same,inhibition,PTK2 (human); compound 0.2 µM,-4.2%
same,inhibition,CHEK2 (human); compound 0.02 µM,-1.2%
same,inhibition,CHEK2 (human); compound 0.2 µM,3.6%
same,inhibition,MST1R (human); compound 0.02 µM,4.9%
same,inhibition,MST1R (human); compound 0.2 µM,10.8%
same,inhibition,SGK3 (human); compound 0.02 µM,8.5%
same,inhibition,SGK3 (human); compound 0.2 µM,1.9%
same,inhibition,AKT3 (human); compound 0.02 µM,-3.5%
same,inhibition,AKT3 (human); compound 0.2 µM,-4.2%
same,inhibition,CSF1R (human); compound 0.02 µM,18.4%
same,inhibition,CSF1R (human); compound 0.2 µM,36.8%
same,inhibition,IKBKE (human); compound 0.02 µM,-6.2%
same,inhibition,IKBKE (human); compound 0.2 µM,-5.1%
same,inhibition,AKT1 (human); compound 0.02 µM,-0.8%
same,inhibition,AKT1 (human); compound 0.2 µM,-3.1%
same,inhibition,STK3 (human); compound 0.02 µM,-2.4%
same,inhibition,STK3 (human); compound 0.2 µM,-3%
same,inhibition,PAK7 (human); compound 0.02 µM,-5.8%
same,inhibition,PAK7 (human); compound 0.2 µM,7.3%
same,inhibition,MERTK (human); compound 0.02 µM,3.6%
same,inhibition,MERTK (human); compound 0.2 µM,5.9%
same,Ki,PTK6 (human),11.8 nM
same,inhibition,PTK6 (human); compound 0.02 µM,44.1%
same,inhibition,PTK6 (human); compound 0.2 µM,92.1%
same,inhibition,PAK1 (human); compound 0.02 µM,-2.7%
same,inhibition,PAK1 (human); compound 0.2 µM,-3%
same,inhibition,CIT (human); compound 0.02 µM,-3%
same,inhibition,CIT (human); compound 0.2 µM,-1.6%
same,inhibition,RPS6KA6 KD1 KD2 (human); compound 0.02 µM,15%
same,inhibition,RPS6KA6 KD1 KD2 (human); compound 0.2 µM,-2.3%
same,inhibition,SRMS (human); compound 0.02 µM,-0.7%
same,inhibition,SRMS (human); compound 0.2 µM,-1.7%
same,inhibition,TAB1 (human); compound 0.02 µM,5.3%
same,inhibition,TAB1 (human); compound 0.2 µM,8.9%
same,inhibition,EPHB1 (human); compound 0.02 µM,-7.8%
same,inhibition,EPHB1 (human); compound 0.2 µM,-0.3%
same,inhibition,HCK (human); compound 0.02 µM,0.4%
same,inhibition,HCK (human); compound 0.2 µM,21.1%
same,inhibition,PRKCE (human); compound 0.02 µM,7.2%
same,inhibition,PRKCE (human); compound 0.2 µM,-3%
same,inhibition,MAPK7 (human); compound 0.02 µM,-8.6%
same,inhibition,MAPK7 (human); compound 0.2 µM,-6.2%
same,inhibition,PRKD1 (human); compound 0.02 µM,-1.3%
same,inhibition,PRKD1 (human); compound 0.2 µM,-2.2%
same,inhibition,MAPKAPK5 (human); compound 0.02 µM,2%
same,inhibition,MAPKAPK5 (human); compound 0.2 µM,0.1%
same,inhibition,PRKACG (human); compound 0.02 µM,-4.7%
same,inhibition,PRKACG (human); compound 0.2 µM,-1.4%
same,inhibition,RET (human); compound 0.02 µM,76.8%
same,inhibition,RET (human); compound 0.2 µM,98.7%
same,inhibition,EPHA8 (human); compound 0.02 µM,-3.2%
same,inhibition,EPHA8 (human); compound 0.2 µM,4.7%
same,inhibition,PRKCA (human); compound 0.02 µM,10.1%
same,inhibition,PRKCA (human); compound 0.2 µM,0.3%
same,inhibition,MARK1 (human); compound 0.02 µM,-2.2%
same,inhibition,MARK1 (human); compound 0.2 µM,2.7%
